From patent publication US20210322339A1, “COMBINATION THERAPY OF COENZYME Q10 AND RADIATION FOR TREATMENT OF GLIOMA” (Berg LLC, priority 2019, published 2021)

Columns and labels:
[1] = system: NHA (normal human astrocytes); assay: Human co-culture U251/NHA, flow cytometry of superoxide in non-cancerous cells; assay type: cell-based; conditions: 0, 230 or 460 μM
From the text: (§1) (A) Strategy of human co-culture experiments. In the human cell model, NHA (non-label) and U251 (GFP-labelled) cells are co-cultured in designated cell density. […] (C) Flow cytometric analysis (scatter plot) of GFP and superoxide for U251/NHA cocultures. Cell populations are characterized based by GFP intensity (GFP-negative, GFP-low, and GFP-high). […] (D) Quantification of cell percentages from (C) illustrating the increased number of GFP-low cells with increased dose. (E) Flow cytometric analysis of superoxide and DAPI for NHA-U251/NHA co-cultures treated with 0, 230, or 460 μM Coenzyme Q10.
(§2) We assessed the effects of Coenzyme Q10 on mitochondrial superoxide production in in vitro cocultures of glioma and non-cancerous cells, i.e. rodent C6 glioma, rodent NIH3T3 non-cancerous fibroblast cells, human U251 glioma, and primary human non-cancerous astrocytes.
(§3) In the human cell model, NHA (non-label) and U251 (GFP-labelled) cells were co-cultured at a designated cell density. Phase and fluorescent images of U251/NHA Co-cultures of U251/NHA cells were treated with 0 or 460 μM Coenzyme Q10 and detected by phase and fluorescent imaging. […] See FIG. 2 B. Cells were also analyzed by flow cytometric analysis (scatter plot) of GFP and superoxide for U251/NHA cocultures. […] Quantification of cell percentages illustrated the increased number of GFP-low cells with increased dose.

C6 glioma cells = assay: Orthotopic C6 glioma rat model, survival and MRI; assay type: in vivo, Wistar rats; conditions: long-term survivor, D27, D34, D102
Method: 10^6 C6 glioma cells were implanted into the right striatum of Wistar rats. Four days after implantation, animals started to receive saline (n=32) or 50 mg/kg of Coenzyme Q10 (n=21), twice a day, i.p. for 45 days. Surviving animals remained in the study until Day 102 (A) Kaplan-Meier survival curve of rats during 45 days of treatment. Over 25% of rats treated with Coenzyme Q10 survived 45 days, considered long-term survival in this model (p<0.01, log rank test). (B) Serial MRI images of a long-term survivor (D27, D34, D102). […] Far right panel is a coronal section of the long-term survivor.
10^6 C6 glioma cells were implanted into the right striatum of Wistar rats. Four days after implantation, animals started to receive saline (n=32) or 50 mg/kg of Coenzyme Q10 (n=21), twice a day, i.p. for 45 days. Surviving animals remained in the study until Day 102.

U251 glioma cells = assay: Human co-culture U251/NHA, imaging and flow cytometry of GFP, superoxide and DAPI; assay type: cell-based
From the text: as §1, §2
as §3, with “cocultures. Cell populations were characterized based by GFP intensity (GFP-negative, GFP-low, and GFP-high).” for “cocultures.”

[2] = system: C6 glioma and NIH3T3 cells; assay: Rodent co-culture of C6-GFP glioma and NIH3T3 cells, cell number and Mitosox superoxide by flow cytometry; assay type: cell-based
Method: FIGS. 2A-2F show differential induction of mitochondrial superoxide by Coenzyme Q10 in non-cancer vs. neoplastic cells. (A) Strategy of rodent co-culture experiments using glioma and non-tumor cells. The rodent cell co-culture consisted of fibroblastic NIH3T3 and glioma C6-GFP cells. (B) NIH3T3 and C6 cells were initially seeded in 1:1 ratio. After 72 h or 144 h incubation with Coenzyme Q10 (0 μM, […], 115 μM, 230 μM, […] or 460 μM), the number of C6 or NIH3T3 cells in co-culture is generated by flow-cytometry. (C) Images were taken at 72 hrs post-dosing (0 μM, 230 μM or 460 μM) using a Leica CTR5000. […] Percentage of cells harboring positive or negative level of superoxide from C6 (GFP+) or NIH3T3 (GFP−) population are recorded by flow cytometry (D) and presented as table of summary (E). […]
as §2
For the rodent cells, NIH3T3 and C6 cells were initially seeded in a 1:1 ratio. […] Superoxide level was detected by Mitosox staining. The percentage of cells harboring positive or negative levels of superoxide from C6 (GFP+) or NIH3T3 (GFP−) populations were determined by flow cytometry.

high-grade glioma = conditions: one patient, after 6 weeks in the study
Method: The patients in this study were administered a CoQ10-lipid conjugate in which oxidized CoQ10 was incorporated into a mixture of mitochondria compatible lipids, enabling delivery of supraphysiological concentrations of CoQ10 to the mitochondria.
This study was a phase I trial of Coenzyme Q10 to assess for safety and tolerability of Coenzyme Q10 with vitamin K in patients with HGGs that were progressive after a bevacizumab (BEV) containing regimen. […] Therefore, this study used 10 mg vitamin K prophylactically.
Design: Modified toxicity probability interval design (mTPI) enrolling patients sequentially and monitoring through a 28-day DLT period. 1 dose escalation and 2 dose de-escalations allowed.
Key Inclusion Criteria: HGG (GB, Gliosarcoma, AA, AO) sp radiation with TMZ in recurrence after treatment with BEV. Evidence of leptomeningeal spread was allowed. >18 w KPS>60. Normal coagulation labs.
Key Exclusion Criteria: History of spontaneous or tumor related intracerebral hemorrhage. Uncontrolled coagulopathies or use of anti-coagulants.

C6 cells = assay: Implanted luciferase-labeled C6 glioma rat model with radiotherapy, survival; assay type: in vivo, Sprague Dawley rats
Method: Methodology: 1×10^6 luciferase labeled C6 cells were implanted into the right striatum of Sprague Dawley rats. 4 days post-implantation, 50 rats were randomized into one of four groups:
(i) Saline injection ip bid; (12 rats)
(ii) Coenzyme Q10 50 mg/kg ip bid to continue up to 35 days; (12 rats)
(iii) 12 Gy radiotherapy (RT) to be administered on Day 8 post-implant with saline injection (12 rats); and
(iv) Coenzyme Q10+RT (14 rats).
Tumor-bearing rats were monitored until death or Day 50.

[3] = system: recurrent high-grade gliomas; conditions: patients with recurrent high-grade gliomas; cited from earlier work

COC1=C(OC)C(=O)C(C/C=C(\C)CC/C=C(\C)CC/C=C(\C)CC/C=C(\C)CC/C=C(\C)CC/C=C(\C)CC/C=C(\C)CC/C=C(\C)CC/C=C(\C)CCC=C(C)C)=C(C)C1=O [Coenzyme Q10]
superoxide values in GFP-negative (NHA) cells [1]: insignificant changes
tumor size over time on serial MRI after treatment was withdrawn (C6 glioma cells): continued shrinkage of the tumor over time
DAPI levels (U251 glioma cells; 0, 230 or 460 μM): only significantly elevated in GFP-low cells
superoxide values in GFP-low and GFP-high cells (U251 glioma cells; 0, 230 or 460 μM): increase in superoxide values
glioma cell levels by phase and fluorescent imaging (U251 glioma cells; 460 μM, U251/NHA co-culture): decreased glioma cell levels with a relative sparing of NHA cells
superoxide level of U251 glioma cells compared to human astrocytes upon treatment (U251 glioma cells; basal difference 1.5-fold): over 4 fold
percentage of GFP-low relative to GFP-high cells (U251 glioma cells; with increasing dose, flow cytometry): increased percentage of GFP-low relative to GFP-high cells
dosage of peak effect of differences in superoxide levels and cell growth ([2]; C6/NIH3T3 co-culture): 230
induction of mitochondrial superoxide versus non-neoplastic cells ([2]; C6 and U251 cells exposed to Coenzyme Q10): significantly more induction of mitochondrial superoxide than non-neoplastic cells
glucose uptake by FDG-PET in the area of prior surgery (high-grade glioma): decreased glucose uptake
median survival (C6 cells; Coenzyme Q10 50 mg/kg ip bid up to 35 days, 12 Gy RT on Day 8, monitored to Day 50, p<0.001): 19 days
Long Term Survivors (%) (C6 cells; survived for 45 days): 5/12 (42%)

Bevacizumab: a monoclonal antibody against vascular endothelial growth factor (VEGF)
response rates [3]: 32-62%
